pIC50: −log10 of the molar value. Structures can show the parent of a compound that is named as a salt. Active and inactive are the calls of the source. No cut-off for these calls is given here.
Columns and labels:
[1] = molecular target: T1, Histone-lysine N-methyltransferase EHMT1 (Homo sapiens) (UniProt Q9H9B1); experiment: (§1) Inhibition of wild type recombinant human histone lysine methyltransferase GLP (951 to 1235 residues) expressed in Escherichia coli Rosetta BL21 DE3 PlysS at 100 uM using ARTKQTARKSTGGKA as substrate preincubated for 5 mins followed by substrate/SAM addition measured after 60 mins by MALDI-TOF MS analysis
T1 sequence (whole entry): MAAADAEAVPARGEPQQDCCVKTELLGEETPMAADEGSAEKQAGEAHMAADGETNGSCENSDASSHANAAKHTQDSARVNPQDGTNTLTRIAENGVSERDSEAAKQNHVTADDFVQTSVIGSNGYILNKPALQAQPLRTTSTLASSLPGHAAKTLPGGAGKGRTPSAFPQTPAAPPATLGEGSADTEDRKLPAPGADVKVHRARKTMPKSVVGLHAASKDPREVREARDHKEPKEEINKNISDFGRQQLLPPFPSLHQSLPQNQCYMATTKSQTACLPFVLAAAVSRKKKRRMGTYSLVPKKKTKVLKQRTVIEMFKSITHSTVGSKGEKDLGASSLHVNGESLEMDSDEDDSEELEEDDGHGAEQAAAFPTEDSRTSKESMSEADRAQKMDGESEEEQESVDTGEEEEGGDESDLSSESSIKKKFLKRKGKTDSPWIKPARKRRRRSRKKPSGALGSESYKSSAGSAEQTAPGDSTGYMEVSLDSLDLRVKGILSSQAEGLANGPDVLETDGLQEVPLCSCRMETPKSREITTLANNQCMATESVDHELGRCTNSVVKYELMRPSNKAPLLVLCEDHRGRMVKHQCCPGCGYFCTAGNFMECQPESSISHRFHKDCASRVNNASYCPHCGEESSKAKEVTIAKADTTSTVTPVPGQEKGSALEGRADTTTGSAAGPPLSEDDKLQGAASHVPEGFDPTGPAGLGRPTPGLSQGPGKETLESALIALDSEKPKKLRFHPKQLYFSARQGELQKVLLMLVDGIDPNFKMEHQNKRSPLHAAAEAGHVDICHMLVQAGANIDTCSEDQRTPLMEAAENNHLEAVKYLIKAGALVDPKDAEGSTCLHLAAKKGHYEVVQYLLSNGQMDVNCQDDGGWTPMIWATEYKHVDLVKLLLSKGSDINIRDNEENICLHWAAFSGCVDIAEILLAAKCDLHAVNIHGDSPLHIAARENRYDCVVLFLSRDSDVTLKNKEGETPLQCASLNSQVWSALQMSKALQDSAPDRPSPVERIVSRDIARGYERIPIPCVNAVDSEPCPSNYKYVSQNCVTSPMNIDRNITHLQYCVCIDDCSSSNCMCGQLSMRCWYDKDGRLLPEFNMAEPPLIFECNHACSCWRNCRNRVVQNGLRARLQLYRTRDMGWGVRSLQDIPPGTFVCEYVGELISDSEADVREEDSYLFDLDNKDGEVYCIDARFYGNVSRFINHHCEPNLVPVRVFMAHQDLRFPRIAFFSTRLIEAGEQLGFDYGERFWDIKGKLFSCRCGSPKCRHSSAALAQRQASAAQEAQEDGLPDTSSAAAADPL

[2] = molecular target: T2, Histone-lysine N-methyltransferase EHMT1 (Homo sapiens, UniProt Q9H9B1); experiment: Inhibition of wild type recombinant human histone lysine methyltransferase GLP (951 to 1235 residues) expressed in Escherichia coli Rosetta BL21 DE3 PlysS using ARTKQTARKSTGGKA as substrate preincubated for 5 mins followed by substrate/SAM addition measured after 60 mins by MALDI-TOF MS analysis
T2 sequence (Q9H9B1 whole entry): T1 sequence (whole entry)

[3] = molecular target: T3, Histone-lysine N-methyltransferase EHMT2 (Homo sapiens) (UniProt Q96KQ7); experiment: as §1, with “G9a (913” for “GLP (951”, “1193” for “1235”
T3 sequence (whole entry): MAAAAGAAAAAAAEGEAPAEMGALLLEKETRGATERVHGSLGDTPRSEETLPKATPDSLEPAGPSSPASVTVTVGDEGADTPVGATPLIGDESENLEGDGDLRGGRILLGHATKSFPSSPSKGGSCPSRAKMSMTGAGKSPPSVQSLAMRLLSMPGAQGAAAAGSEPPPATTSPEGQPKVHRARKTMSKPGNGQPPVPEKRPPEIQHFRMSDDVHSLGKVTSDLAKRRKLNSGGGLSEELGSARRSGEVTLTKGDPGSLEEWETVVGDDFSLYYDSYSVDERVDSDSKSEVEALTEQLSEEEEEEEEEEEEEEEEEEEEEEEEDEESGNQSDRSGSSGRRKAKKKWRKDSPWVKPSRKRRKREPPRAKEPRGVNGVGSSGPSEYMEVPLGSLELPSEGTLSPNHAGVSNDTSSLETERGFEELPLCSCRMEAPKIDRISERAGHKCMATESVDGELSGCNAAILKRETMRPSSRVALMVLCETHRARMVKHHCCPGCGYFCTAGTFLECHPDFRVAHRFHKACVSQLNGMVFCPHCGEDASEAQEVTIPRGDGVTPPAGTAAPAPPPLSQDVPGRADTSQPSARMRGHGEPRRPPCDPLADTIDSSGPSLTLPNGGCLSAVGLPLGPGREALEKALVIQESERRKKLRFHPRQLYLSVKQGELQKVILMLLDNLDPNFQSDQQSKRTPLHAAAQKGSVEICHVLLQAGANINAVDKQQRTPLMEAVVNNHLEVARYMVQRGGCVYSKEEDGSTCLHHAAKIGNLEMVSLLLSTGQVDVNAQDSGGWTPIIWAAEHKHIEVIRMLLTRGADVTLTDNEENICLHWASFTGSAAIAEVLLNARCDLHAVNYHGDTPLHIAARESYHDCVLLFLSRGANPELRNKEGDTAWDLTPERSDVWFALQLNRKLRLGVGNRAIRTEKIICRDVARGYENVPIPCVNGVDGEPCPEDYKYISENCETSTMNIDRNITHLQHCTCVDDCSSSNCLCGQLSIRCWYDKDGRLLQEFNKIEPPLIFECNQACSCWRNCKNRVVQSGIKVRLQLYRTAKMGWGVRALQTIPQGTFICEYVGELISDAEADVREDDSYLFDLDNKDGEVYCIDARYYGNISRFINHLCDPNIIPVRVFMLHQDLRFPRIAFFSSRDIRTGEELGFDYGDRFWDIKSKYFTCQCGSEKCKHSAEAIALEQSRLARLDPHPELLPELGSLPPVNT

[4] = molecular target: T3, Histone-lysine N-methyltransferase EHMT2 (Homo sapiens); experiment: as §1, with “G9a (913” for “GLP (951”, “1193” for “1235”, “10” for “100”
[5] = molecular target: T4, Histone-lysine N-methyltransferase EHMT2 (Homo sapiens, UniProt Q96KQ7); experiment: Inhibition of wild type recombinant human histone lysine methyltransferase G9a (913 to 1193 residues) expressed in Escherichia coli Rosetta BL21 DE3 PlysS using ARTKQTARKSTGGKA as substrate preincubated for 5 mins followed by substrate/SAM addition measured after 60 mins by MALDI-TOF MS analysis
T4 sequence (Q96KQ7 whole entry): T3 sequence (whole entry)

[6] = molecular target: T3, Histone-lysine N-methyltransferase EHMT2 (Homo sapiens); experiment: Inhibition of wild type recombinant human histone lysine methyltransferase G9a (913 to 1193 residues) expressed in Escherichia coli Rosetta BL21 DE3 PlysS assessed as zinc ions ejection from Cys4-Zn finger at 100 uM by FluoZin-3 based fluorescence assay
[7] = molecular target: T1, Histone-lysine N-methyltransferase EHMT1 (Homo sapiens); experiment: Inhibition of wild type recombinant human histone lysine methyltransferase GLP (951 to 1235 residues) expressed in Escherichia coli Rosetta BL21 DE3 PlysS assessed as zinc ions ejection from Cys4-Zn finger at 100 uM by FluoZin-3 based fluorescence assay
[8] = molecular target: T1, Histone-lysine N-methyltransferase EHMT1 (Homo sapiens); experiment: as §1, with “10” for “100”

| SMILES | inhibition [1] [%] | pIC50 [2] | inhibition [3] [%] | inhibition [4] | pIC50 [5] | inhibition [6] | inhibition [7] | inhibition [8] |
| --- | --- | --- | --- | --- | --- | --- | --- | --- |
| c1ccc(SSc2ccccn2)nc1 | > 50 | 5.57 | > 50 | inactive | 6.19 | Active | Active | inactive |
| O=C1c2ccccc2C(=O)C1(O)O | 40 | < 4.00 |  | inactive | 4.27 | Active | Active | inactive |
| c1ccc([Se][Se]c2ccccc2)cc1 | > 50 | 6.07 | > 50 | inactive | 6.26 | Active | Active | inactive |
| Cl[Se]c1ccccc1 | > 50 | 5.96 | > 50 | inactive | 5.92 | Active | Active | inactive |
| Br[Se]c1ccccc1 | > 50 | 5.82 | > 50 | inactive | 6.10 | Active | Active | inactive |
| O=C1c2ccccc2C(=O)N1[Se]c1ccccc1 | > 50 | 6.00 | > 50 | inactive | 6.35 | Active | Active | inactive |
| COc1cc2c(NC3CCN(C(C)C)CC3)nc(C3CCCCC3)nc2cc1OCCCN1CCCC1 |  |  |  |  |  | Active | Active |  |
| C[S+](C)[O-] |  |  |  |  |  | Active | Active |  |
| O=C1c2ccccc2C(=O)c2ccccc21 [ANTHRAQUINONE] | 20 | < 4.00 | 20 | inactive | < 4.00 | Active | Active | inactive |
| O=[Se](O)c1ccccc1 [BENZENE SELENOIC ACID] | > 50 | 5.31 | > 50 | inactive | 5.36 | Active | Active | inactive |
| NCCSSCCN [CYSTAMINE DIHYDROCHLORIDE] |  | < 4.00 |  | inactive | 4.82 | Active | Active | inactive |
| NCCS [CYSTEAMINE] |  | < 4.00 |  | inactive | < 4.00 | Active | Active | inactive |
| CCN(CC)C(=S)S [DITIOCARB SODIUM] | > 50 | 4.09 | > 50 | inactive | 5.04 | Active | Active | inactive |
| NC(=O)/N=N/C(N)=O [E927A] | > 50 | 5.77 | > 50 | inactive | 6.30 | Active | Active | inactive |
| N[C@@H](CCC(=O)N[C@@H](CS)C(=O)NCC(=O)O)C(=O)O [GLUTATHIONE] |  | < 4.00 |  | inactive | < 4.00 | Active | Active | inactive |
| O=C1C=CC(=O)c2ccccc21 [NAPHTHOQUINONE] | > 50 | 4.85 | > 50 | inactive | 5.70 | Active | Active | inactive |
| O=[Se](=O)(O)O [SODIUM SELENATE] | 10 | < 4.00 | 10 | inactive | < 4.00 | Active | Active | inactive |
| CN(C)C(=S)SSC(=S)N(C)C [THIRAM] | > 50 | 5.96 | > 50 | inactive | 6.26 | Active | Active | inactive |

— ChEMBL document CHEMBL4184305, “Inhibition of histone lysine methyltransferases G9a and GLP by ejection of structural Zn(II)” (Bioorg Med Chem Lett, 2018)
